Test [1] concerns the target T1, TAAR13c (Danio rerio, UniProt Q5QNP2).
T1 construct: expressed in transfected cells; host or cells: HEK-293
T1 sequence (Q5QNP2 1-341): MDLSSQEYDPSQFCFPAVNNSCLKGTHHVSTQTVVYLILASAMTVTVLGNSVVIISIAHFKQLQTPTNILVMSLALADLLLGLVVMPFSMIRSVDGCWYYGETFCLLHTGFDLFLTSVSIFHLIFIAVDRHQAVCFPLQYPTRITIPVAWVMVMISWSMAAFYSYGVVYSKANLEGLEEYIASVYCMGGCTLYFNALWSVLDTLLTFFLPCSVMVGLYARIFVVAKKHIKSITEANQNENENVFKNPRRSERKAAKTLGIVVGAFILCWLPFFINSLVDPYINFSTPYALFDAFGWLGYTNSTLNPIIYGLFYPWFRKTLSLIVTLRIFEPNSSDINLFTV
Nature of the test: Dual-Glo Luciferase assay, TAAR13c-expressing HEK-293 cells. The format is cell-based, zebrafish (Danio rerio). As for the experimental part:
Human embryonic kidney (HEK)-293 cells were cultured in Dulbecco's Modified Eagles Medium (DMEM) (HyClone, USA) containing 1% penicillin, 1% streptomycin (Gibco, USA) and 10% Fetal Bovine Serum (FBS)(Gibco, USA), under the conditions of 37° C. and 5% C02. Transfection was performed by the following method using Lipofectamine® 3000. Specifically, the cells were transfected with a DNA mixture containing TAAR13c, pCRE-Luc, pSV40-RL, Gαolf, and Receptor-transporting protein 1 short (RTP1S) using Lipofectamine® 3000. The characteristics against cadaverine were confirmed using the TAAR13c produced in Example 4 by the Dual-Glo Luciferase assay system. Specifically, the transfected cells were cultured in DMEM medium (50 μL) for 30 minutes, and an odorant (25 μL) designed to the desired concentration was added thereto, and cultured for 4 hours. Then, the Dual-Glo Luciferase reagent (20 μL) was added thereto, cultured at room temperature for 10 minutes, and the firefly luciferase luminescence was measured using the luminescence plate reader. Then, the Dual-Glo Stop-n-Glo reagent (20 μL) was added to the measured sample, and the mixture was cultured at room temperature for 10 minutes, and the Renilla luciferase luminescence was measured. The measured data was analyzed using the following formula. […]

Test [2] deals with T2, TAAR13c-embedded nanodiscs (T13NDs) (Danio rerio, UniProt Q5QNP2).
T2 construct: His tag (from pET-DEST42) (C); made in house; host or cells: E. coli BL21 (DE3)
T2 sequence (Q5QNP2 1-341): T1 sequence (Q5QNP2 1-341)
Nature of the test: Real-time intrinsic tryptophan fluorescence of T13ND. It is filed as binding, zebrafish (Danio rerio). Conditions: excitation 290 nm; emission 340 nm; FIG. 11. As for the experimental part:
The intrinsic fluorescence of T13NDs was measured real time using the LS 55 luminescence spectrometer (Perkin Elmer, USA) (excitation 290 nm; emission 340 nm). The real-time measurement of intrinsic fluorescence of TAAR13c was measured at various amine concentrations of 1 mM to 10 mM.

Test [3] deals with HEK-293 cells transfected with a random vector (MocK). Nature of the test: Dual-Glo Luciferase assay, cells transfected with a random vector (MocK). The format is cell-based, Human. Conditions: Comparative Example, FIG. 5.

For the compound `NCCCCCN` [CV, cadaverine], in test [1] (FIG. 6), the “selectivity of TAAR13c response among various amines (cell-based)” value was “showed a response only against CV”. The “response of TAAR13c-expressing cells to CV (normalised CRE/Renilla luciferase)” value in test [1] (concentration-dependent treatment of CV, 4 hours, FIG. 5) is on record as “significant response”. The “real-time tryptophan fluorescence of T13ND with increasing concentration of CV” value in test [2] is given as “T13ND has an affinity for CV”. Also, the “response of Mock-transfected cells to CV (normalised CRE/Renilla luciferase)” value in test [3] is “did not show any significant response”.

Source of the values: US20210214401A1, “MANUFACTURING METHOD OF NANODISC COMPRISING AN OLFACTORY RECEPTOR PROTEIN AND NANODISC COMPRISING AN OLFACTORY RECEPTOR PROTEIN MANUFACTURED BY THE SAME” (SEOUL NATIONAL UNIVERSITY R&DB FOUNDATION, priority 2017, published 2021).
